Data as given in patent US12622880B2, “Therapeutic system for the topical, transdermal and transcutaneous application of carbon monoxide” (Julius-Maximilians-Universitaet Wuerzburg, priority 2020, dated 2026).

Test: CO release through pig ear skin
Type: in vitro ADME
Description: Pig ear skin was purchased from a butcher and prepared immediately after delivery. Skin was carefully removed from the remaining fat and cartilage. Subsequent to the preparation, the skin was clamped between the top and bottom compartment of the test cell. Sealing was ensured by screw clamps and a sealing ring (FIG. 5A).
For the experiment 15 mg of tri-sodium Beck-1 ((Mo(CO)3(CNCH2CO2Na)3) were placed in the bottom compartment of the test cell and dissolved in 4 mL H2O. CO release was activated by adding 1 mL of iron(III)chloride solution (350 mg/mL) to the tri-sodium Beck-1. CO release through the pig skin was measured over a time period of 1000 minutes.
The data shown in FIG. 6 illustrates that CO release trough the pig skin is a slow process and reaches plateau in the raw data at around 500 minutes and stays at that plateau of 200 ppm CO for another 500 minutes until the end of the experiment. A plateau in the raw data means that the sensor consumption of CO is at the same rate as the release through the skin. To correct for the sensor consumption, CO release data of tri-sodium Beck-1 without any limiting membranes were used to calculate the consumption rate of the sensor.

## [C-]#[O+] [CO, carbon monoxide]
15 mg tri-sodium Beck-1 activated with iron(III)chloride, at 1000 minutes, corrected for sensor consumption of CO
  CO release through the pig skin, maximum in the corrected data: 340 ppm
15 mg tri-sodium Beck-1 in 4 mL H2O activated with 1 mL iron(III)chloride solution (350 mg/mL), averaged raw data (n=2), plateau held until 1000 minutes
  CO release through the pig skin, plateau in the raw data: 200 ppm
15 mg tri-sodium Beck-1 in 4 mL H2O activated with 1 mL iron(III)chloride solution (350 mg/mL), raw data
  time at which CO release through the pig skin reaches plateau in the raw data: around 500 minutes
